What follows are compounds tested against T1, human recombinant DPP-IV (Homo sapiens, UniProt P27487) (assay: biochemical).
T1 construct: purchased Enzo Life Sciences AK499-0001
Description: The potency of the tested compounds is described upon the degree in inhibition of DPP-IV cleavage of the chromogenic substrate Gly-Pro-pNA (pNA is p-nitroaniline), expressed as IC50 values.
The assay was performed in 96-well plates at 37°C. First the enzyme was preincubated with the test compounds for 10 min. Therefore each well was filled with 0.18 mU of enzyme and variable concentrations of the inhibitor. Each well was filled up with Tris buffer (50 mM, pH 7.5) to a final volume of 200 µL. For dilutions of all test compounds DMSO was used.
The assay was repeated 3 times for each test compound. IC50 values were calculated after plotting the data for up to eight inhibitor concentrations by mean.
By measuring the rate of hydrolysis of Gly-Pro-pNA at four different concentrations of substrate and inhibitor the type of inhibition was determined. […] For each concentration of inhibitor the initial rates were used for Lineweaver-Burk plot.

T1 sequence (P27487 whole entry): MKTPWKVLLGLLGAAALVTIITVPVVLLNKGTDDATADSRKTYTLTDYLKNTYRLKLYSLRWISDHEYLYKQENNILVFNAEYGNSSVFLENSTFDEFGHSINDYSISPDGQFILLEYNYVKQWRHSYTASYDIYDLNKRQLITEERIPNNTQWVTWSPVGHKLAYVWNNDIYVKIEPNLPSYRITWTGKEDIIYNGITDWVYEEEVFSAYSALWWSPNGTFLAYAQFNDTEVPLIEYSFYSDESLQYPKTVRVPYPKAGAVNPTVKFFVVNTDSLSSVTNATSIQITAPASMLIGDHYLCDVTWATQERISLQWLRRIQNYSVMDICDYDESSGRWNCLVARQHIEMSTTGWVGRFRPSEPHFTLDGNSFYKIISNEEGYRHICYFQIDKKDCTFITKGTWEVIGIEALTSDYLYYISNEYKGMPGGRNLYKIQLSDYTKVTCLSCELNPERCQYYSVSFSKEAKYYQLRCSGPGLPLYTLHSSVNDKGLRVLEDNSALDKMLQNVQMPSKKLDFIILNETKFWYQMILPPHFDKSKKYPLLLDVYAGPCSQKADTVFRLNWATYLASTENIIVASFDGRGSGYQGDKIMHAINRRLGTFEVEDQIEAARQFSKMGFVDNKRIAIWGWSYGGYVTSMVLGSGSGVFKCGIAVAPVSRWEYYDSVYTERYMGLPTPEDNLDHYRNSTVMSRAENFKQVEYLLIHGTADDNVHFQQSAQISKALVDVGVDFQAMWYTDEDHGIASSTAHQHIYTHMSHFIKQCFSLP

IC50 [µM] | Compound
< 10 | Cc1nc(C(=O)O)cc(-c2ccc(F)cc2)c1CN [(XIII)]
< 10 | Cc1nc(-c2ccc(Cl)cc2Cl)cc(C(=O)O)c1CN [regioisomer (XV), reference compound]
< 10 | Cc1nc(C(=O)O)cc(-c2ccccc2F)c1CN [(XIV)]
